According to ChEMBL document CHEMBL1201862, “PubChem BioAssay data set” (2004):
Calls of active or inactive are those of the source.

What was measured:
[1] = target: T1, Estrogen receptor beta (Homo sapiens, UniProt Q92731); assay: blockers of SRC-3 recruitment to ERβ – biochemical, ELISA, streptavidin-HRP readout, orthogonal assay, confirmation (AID 1060)
[2] = target: T2, Bcl-2-like protein 10 (Homo sapiens, UniProt Q9HD36); assay: Bcl-B/TR3 peptide binding disruption – biochemical, fluorescence polarization, FITC-TR3 peptide, selectivity assay for Bfl-1 inhibitor project, primary screen (AID 748);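 also: fluorescence polarization from a fluorescein-labelled TR3 peptide binding purified Bcl-B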
T2 sequence (Q9HD36 whole entry): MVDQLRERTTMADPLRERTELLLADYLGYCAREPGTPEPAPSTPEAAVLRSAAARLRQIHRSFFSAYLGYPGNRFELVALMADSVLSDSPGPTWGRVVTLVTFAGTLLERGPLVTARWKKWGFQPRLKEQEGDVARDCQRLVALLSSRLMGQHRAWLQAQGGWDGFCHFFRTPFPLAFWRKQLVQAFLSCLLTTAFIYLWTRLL

[3] = target: T1, Estrogen receptor beta
[4] = target: Voltage-dependent T-type calcium channel subunit alpha-1H (Homo sapiens, UniProt O95180); assay type: functional;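 also: channel activity triggered by adding a high calcium stimulation buffer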
[5] = target: DNA dC->dU-editing enzyme APOBEC-3G (Homo sapiens, UniProt Q9HC16); assay: Dose Response confirmation of small molecule APOBEC3G DNA Deaminase Inhibitors via a fluorescence-based single-stranded DNA deaminase assay. [Related pubchem assays (depositor defined):AID493012, AID493028]; assay type: functional
[6] = target: Beta-galactosidase (Escherichia coli, UniProt Q8VNN2); assay type: functional
[7] = target: T3, Kappa-type opioid receptor (Homo sapiens, UniProt P41145); assay type: functional
[8] = target: T3, Kappa-type opioid receptor; assay type: functional; remark: listed apart in the source
[9] = target: T4, Aminopeptidase N (Plasmodium falciparum FcB1/Columbia, UniProt O96935); assay: malaria alanyl aminopeptidase activity blockers – biochemical, fluorogenic H-Leu-NHMec substrate, 1536-well (AID 1445); parameters: species or system Plasmodium falciparum 3D7, 3D7
T4 sequence (O96935 whole entry): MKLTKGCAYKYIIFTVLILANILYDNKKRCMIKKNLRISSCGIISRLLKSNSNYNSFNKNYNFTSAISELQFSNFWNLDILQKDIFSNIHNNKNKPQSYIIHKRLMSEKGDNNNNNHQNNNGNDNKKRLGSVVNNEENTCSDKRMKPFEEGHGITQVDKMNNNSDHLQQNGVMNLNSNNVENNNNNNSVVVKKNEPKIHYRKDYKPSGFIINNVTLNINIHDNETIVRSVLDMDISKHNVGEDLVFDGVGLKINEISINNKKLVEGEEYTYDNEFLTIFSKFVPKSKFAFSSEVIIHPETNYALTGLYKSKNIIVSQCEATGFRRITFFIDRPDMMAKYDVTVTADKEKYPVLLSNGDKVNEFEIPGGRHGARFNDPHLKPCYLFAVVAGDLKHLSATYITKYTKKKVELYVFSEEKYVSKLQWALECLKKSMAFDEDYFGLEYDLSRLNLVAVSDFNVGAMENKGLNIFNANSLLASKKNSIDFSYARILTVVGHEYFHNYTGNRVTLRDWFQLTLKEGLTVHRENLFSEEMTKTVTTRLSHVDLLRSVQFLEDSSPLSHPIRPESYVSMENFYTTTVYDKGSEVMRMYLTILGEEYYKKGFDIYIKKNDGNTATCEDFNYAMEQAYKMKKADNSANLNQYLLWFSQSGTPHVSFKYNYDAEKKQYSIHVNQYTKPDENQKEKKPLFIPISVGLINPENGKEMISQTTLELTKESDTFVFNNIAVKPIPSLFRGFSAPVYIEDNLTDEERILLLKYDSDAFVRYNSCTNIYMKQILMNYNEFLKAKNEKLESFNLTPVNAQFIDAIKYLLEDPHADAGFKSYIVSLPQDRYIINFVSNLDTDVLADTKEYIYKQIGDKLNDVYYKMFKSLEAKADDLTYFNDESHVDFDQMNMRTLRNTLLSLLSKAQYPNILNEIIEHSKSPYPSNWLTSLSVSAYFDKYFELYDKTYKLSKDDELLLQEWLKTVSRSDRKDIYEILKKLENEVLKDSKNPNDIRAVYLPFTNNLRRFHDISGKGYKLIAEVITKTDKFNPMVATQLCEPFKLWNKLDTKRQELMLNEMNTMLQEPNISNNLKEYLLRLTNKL

[10] = target: T5, Replicative DNA helicase DnaB (Mycobacterium tuberculosis, UniProt P9WMR3); assay: DnaB intein splicing inhibitors, dose response, biochemical, cell-free fluorescence (AID 449749); assay type: functional
T5 sequence (P9WMR3 whole entry): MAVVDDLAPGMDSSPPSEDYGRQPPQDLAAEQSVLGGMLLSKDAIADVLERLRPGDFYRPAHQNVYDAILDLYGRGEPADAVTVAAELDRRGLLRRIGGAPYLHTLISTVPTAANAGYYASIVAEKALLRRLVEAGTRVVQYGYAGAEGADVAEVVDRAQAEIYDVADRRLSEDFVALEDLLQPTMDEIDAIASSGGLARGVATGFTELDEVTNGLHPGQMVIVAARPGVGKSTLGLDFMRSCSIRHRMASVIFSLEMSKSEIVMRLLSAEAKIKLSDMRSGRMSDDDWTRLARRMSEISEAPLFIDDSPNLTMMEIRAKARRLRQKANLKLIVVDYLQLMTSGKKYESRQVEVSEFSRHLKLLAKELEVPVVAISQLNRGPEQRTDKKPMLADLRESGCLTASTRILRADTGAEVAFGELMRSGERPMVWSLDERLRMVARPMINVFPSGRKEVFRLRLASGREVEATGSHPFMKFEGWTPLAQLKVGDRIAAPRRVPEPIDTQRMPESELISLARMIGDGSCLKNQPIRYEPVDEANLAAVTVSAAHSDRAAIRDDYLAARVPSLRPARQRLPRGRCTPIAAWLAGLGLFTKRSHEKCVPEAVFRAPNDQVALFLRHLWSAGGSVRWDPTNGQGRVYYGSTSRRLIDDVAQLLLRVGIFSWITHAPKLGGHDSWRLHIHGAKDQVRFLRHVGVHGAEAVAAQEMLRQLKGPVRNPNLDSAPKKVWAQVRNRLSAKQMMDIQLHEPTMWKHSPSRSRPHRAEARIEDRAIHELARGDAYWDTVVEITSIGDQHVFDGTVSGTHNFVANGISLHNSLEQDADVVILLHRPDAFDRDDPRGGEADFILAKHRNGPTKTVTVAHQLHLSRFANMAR

[11] = target: Large T antigen (Simian virus 40, UniProt P03070); assay type: functional, Betapolyomavirus macacae;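 also: Confirmatory-stage PubChem screen for compounds that inhibit SV40 T antigen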
[12] = target: Induced myeloid leukemia cell differentiation protein Mcl-1 (Homo sapiens, UniProt Q07820); assay type: functional
[13] = NIH-3T3 fibroblast cytotoxicity, dose response, cytotoxicity control, cell-based, fluorescence, Alamar Blue, secondary assay (AID 2327); assay type: functional;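 also: NIH-3T3 mouse fibroblasts cultured with fluconazole at 8 µg/mL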
[14] = fluconazole-exposed Candida albicans growth modulators – fluorescence, retest, confirmation (AID 2467); assay type: functional, cell-based
[15] = target: T6, Protein RecA (Mycobacterium tuberculosis, UniProt P9WHJ3); assay: Fluorescence Cell-Free Homogeneous Dose Retest to Identify Inhibitors of RecA-Intein Splicing Activity. [Related pubchem assays (depositor defined):AID2097, AID2223, AID489010, AID492950]; assay type: functional
T6 sequence (P9WHJ3 whole entry): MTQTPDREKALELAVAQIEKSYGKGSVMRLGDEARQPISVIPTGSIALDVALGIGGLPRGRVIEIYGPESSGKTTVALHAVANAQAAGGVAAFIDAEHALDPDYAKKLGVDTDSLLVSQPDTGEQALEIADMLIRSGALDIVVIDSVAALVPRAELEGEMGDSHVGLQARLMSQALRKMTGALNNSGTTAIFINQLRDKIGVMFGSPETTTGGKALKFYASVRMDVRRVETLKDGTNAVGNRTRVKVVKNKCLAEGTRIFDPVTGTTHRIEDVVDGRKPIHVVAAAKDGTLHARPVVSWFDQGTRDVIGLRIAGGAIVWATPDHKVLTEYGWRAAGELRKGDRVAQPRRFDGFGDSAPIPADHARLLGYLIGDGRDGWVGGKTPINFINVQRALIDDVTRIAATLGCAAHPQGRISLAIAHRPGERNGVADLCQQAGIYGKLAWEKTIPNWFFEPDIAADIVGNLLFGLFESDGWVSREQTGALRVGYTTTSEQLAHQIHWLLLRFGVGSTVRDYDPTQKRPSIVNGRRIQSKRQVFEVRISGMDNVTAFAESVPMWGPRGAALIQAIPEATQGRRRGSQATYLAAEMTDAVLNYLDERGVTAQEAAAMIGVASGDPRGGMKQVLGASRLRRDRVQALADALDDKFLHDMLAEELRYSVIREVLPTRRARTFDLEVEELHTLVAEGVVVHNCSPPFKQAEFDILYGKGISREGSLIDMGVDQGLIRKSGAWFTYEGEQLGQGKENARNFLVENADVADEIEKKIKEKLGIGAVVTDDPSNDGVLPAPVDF

[16] = target: Trypsin (Sus scrofa, UniProt P00761); assay: trypsin protease activity blockade – biochemical, quenched peptide fluorescence, cherry-pick, selectivity assay for Rce1 protease inhibitor project, dose response (AID 488789)
[17] = target: Kallikrein-7 (Homo sapiens, UniProt P49862); assay: Fluorescence Intensity-based biochemical primary high throughput dose response assay to identify activators of kallikrein-7 (K7) zymogen.
[18] = Trypanosoma cruzi growth suppression in host cells – NIH3T3 host cells, beta-gal luminescence, confirmation (AID 2044); assay type: functional, cell-based;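 also: intracellular parasites grown in NIH/3T3 mouse fibroblasts as host cells; luminescent beta-galactosidase reporter signal from transgenic T. cruzi replicating inside host cells; inhibitors lower the luminescence signal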
[19] = NIH3T3 cell viability loss – ATP luminescence, mouse fibroblasts, counter-screen, dose response (AID 2010); assay type: functional, cell-based;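 also: cells exposed to compound for about 90 hours before reading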
[20] = target: T7, Short transient receptor potential channel 4 (Mus musculus, UniProt Q9QUQ5); assay: block of DAMGO-driven TRPC4 calcium entry – cell-based, HEK293 TRPC4/mu-opioid, Fluo-4 calcium, dose response (AID 434942); assay type: functional;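 also: potency of inhibitors blocking the TRPC4 calcium response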
T7 sequence (Q9QUQ5 whole entry): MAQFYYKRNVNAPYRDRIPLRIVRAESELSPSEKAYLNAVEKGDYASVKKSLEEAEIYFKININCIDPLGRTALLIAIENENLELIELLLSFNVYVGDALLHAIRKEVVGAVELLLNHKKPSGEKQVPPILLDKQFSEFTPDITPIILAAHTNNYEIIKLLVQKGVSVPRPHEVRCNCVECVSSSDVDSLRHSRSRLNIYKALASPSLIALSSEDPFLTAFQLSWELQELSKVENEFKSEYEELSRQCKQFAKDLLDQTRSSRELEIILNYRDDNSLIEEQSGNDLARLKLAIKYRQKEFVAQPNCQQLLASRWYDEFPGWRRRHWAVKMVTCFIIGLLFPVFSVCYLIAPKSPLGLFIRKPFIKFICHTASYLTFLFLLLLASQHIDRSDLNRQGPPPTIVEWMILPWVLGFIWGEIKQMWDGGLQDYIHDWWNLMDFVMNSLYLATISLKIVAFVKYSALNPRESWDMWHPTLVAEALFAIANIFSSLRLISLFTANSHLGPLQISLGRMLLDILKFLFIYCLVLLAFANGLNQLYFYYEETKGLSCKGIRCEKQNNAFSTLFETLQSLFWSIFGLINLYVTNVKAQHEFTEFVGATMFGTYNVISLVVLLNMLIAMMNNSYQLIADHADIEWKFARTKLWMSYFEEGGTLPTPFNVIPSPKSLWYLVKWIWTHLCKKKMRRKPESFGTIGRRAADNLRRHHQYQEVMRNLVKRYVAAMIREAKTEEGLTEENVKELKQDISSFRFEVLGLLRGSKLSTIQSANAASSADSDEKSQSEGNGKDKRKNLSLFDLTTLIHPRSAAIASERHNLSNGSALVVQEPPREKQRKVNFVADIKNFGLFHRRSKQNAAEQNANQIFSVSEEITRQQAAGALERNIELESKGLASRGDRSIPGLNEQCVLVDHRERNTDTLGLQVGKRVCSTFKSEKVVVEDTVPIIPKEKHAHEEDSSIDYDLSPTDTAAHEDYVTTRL

T3 sequence (P41145 whole entry): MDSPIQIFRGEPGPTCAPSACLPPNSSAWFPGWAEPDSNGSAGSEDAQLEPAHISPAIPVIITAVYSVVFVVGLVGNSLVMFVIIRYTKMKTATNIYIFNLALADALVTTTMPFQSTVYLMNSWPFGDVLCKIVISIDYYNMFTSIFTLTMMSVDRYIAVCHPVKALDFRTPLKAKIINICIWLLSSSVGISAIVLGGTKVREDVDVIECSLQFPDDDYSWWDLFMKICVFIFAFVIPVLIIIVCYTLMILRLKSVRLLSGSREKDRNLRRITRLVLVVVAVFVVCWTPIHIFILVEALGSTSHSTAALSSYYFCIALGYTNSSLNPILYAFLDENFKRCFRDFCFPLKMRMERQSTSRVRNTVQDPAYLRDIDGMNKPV
Sequence of Voltage-dependent T-type calcium channel subunit alpha-1H (O95180 whole entry): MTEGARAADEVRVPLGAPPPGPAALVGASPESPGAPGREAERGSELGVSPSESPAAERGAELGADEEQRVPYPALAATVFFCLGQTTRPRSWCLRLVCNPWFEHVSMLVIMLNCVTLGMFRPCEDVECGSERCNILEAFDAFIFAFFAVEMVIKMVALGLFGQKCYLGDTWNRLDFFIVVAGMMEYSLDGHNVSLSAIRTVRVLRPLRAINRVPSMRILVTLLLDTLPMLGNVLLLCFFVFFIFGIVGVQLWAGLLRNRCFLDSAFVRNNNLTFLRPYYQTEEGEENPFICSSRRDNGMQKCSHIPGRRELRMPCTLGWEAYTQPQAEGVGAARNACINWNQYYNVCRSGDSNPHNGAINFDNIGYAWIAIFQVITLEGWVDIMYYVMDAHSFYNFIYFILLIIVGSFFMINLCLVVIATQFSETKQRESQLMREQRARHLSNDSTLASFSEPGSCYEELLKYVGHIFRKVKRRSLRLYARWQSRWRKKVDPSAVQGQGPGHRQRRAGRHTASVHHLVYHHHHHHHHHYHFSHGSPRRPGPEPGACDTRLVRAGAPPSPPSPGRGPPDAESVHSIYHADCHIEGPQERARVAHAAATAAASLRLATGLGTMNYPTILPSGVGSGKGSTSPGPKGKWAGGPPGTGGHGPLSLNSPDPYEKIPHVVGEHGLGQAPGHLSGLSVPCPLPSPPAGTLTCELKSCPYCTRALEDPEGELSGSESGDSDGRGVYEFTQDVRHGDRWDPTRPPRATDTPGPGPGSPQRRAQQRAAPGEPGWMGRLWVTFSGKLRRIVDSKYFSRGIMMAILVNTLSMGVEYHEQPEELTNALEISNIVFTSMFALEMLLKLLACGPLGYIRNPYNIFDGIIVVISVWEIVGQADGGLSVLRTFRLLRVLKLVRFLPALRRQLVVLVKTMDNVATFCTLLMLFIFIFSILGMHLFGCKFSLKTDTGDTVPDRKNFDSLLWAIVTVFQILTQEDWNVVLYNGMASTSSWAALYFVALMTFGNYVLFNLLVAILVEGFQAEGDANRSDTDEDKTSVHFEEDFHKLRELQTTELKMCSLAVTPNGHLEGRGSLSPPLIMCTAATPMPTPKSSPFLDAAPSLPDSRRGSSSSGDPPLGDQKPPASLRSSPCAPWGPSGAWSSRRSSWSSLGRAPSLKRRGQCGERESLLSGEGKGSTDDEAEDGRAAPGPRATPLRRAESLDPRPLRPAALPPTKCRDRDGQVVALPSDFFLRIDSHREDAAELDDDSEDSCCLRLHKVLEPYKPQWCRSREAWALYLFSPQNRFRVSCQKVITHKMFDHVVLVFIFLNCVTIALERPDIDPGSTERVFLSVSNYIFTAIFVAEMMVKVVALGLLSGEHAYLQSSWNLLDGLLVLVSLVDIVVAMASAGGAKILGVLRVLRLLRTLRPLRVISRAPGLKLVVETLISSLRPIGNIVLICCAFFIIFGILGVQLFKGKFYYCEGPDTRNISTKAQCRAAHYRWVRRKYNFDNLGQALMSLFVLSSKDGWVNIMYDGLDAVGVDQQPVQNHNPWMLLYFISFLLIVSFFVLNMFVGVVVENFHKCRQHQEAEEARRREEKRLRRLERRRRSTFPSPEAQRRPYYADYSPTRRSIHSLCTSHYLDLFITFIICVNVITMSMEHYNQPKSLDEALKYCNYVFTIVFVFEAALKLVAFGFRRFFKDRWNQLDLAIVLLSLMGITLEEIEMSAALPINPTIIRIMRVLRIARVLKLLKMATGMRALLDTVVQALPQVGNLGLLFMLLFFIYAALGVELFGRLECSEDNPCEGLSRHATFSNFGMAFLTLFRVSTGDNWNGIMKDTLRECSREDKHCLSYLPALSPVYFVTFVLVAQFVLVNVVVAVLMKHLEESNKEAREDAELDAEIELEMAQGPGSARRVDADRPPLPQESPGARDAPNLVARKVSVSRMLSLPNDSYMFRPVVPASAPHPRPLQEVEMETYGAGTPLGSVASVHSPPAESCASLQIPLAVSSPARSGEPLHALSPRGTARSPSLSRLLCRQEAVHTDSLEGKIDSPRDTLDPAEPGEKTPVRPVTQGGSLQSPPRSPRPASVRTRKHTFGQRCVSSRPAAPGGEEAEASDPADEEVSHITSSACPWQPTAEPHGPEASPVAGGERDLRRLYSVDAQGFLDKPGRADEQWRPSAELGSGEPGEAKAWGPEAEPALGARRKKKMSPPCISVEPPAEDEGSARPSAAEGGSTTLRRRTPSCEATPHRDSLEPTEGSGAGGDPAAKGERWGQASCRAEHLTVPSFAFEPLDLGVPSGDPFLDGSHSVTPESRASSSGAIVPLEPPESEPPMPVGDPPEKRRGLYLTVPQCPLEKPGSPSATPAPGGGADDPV
T1 sequence (Q92731 whole entry): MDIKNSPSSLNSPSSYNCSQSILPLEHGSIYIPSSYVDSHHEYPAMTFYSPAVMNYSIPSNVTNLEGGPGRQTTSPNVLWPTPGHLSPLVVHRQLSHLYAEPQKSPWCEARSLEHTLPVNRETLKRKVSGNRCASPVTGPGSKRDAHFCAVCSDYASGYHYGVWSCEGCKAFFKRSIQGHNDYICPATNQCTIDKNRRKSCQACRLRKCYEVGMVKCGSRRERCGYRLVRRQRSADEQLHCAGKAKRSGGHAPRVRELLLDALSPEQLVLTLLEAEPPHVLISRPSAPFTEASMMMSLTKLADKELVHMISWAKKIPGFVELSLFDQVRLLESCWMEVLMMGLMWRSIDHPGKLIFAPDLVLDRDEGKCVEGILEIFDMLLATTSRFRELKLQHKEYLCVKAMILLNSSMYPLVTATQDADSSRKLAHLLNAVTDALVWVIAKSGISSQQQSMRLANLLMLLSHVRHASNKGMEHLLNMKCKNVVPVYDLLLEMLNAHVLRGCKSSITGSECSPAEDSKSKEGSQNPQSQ
Sequence of Beta-galactosidase (Q8VNN2 whole entry): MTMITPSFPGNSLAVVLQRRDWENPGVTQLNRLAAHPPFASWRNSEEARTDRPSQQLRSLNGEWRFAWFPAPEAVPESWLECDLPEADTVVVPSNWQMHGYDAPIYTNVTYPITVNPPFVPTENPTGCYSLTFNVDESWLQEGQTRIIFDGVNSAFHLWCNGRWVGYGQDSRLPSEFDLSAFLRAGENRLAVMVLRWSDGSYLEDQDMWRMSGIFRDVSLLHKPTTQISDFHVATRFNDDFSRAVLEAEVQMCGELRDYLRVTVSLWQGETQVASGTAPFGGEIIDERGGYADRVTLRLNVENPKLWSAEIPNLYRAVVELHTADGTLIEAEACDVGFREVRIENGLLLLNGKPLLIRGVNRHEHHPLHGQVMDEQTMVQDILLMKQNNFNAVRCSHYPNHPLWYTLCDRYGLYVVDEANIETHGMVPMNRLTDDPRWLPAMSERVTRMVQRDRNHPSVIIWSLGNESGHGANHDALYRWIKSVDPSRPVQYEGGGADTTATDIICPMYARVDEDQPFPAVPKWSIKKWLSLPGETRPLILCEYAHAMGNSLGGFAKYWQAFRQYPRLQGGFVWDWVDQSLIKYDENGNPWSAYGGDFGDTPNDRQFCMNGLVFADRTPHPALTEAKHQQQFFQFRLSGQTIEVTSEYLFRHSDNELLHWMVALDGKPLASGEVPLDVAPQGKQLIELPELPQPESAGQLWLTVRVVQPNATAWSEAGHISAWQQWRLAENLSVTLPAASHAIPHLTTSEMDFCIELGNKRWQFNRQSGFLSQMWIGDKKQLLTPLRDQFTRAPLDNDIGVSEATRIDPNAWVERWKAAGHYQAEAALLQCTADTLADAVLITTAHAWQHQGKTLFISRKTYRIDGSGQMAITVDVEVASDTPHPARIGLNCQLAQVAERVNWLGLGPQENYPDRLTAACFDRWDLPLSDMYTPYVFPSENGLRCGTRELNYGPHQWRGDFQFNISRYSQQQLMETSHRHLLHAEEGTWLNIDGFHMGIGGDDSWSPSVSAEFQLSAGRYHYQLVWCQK
Sequence of DNA dC->dU-editing enzyme APOBEC-3G (Q9HC16 whole entry): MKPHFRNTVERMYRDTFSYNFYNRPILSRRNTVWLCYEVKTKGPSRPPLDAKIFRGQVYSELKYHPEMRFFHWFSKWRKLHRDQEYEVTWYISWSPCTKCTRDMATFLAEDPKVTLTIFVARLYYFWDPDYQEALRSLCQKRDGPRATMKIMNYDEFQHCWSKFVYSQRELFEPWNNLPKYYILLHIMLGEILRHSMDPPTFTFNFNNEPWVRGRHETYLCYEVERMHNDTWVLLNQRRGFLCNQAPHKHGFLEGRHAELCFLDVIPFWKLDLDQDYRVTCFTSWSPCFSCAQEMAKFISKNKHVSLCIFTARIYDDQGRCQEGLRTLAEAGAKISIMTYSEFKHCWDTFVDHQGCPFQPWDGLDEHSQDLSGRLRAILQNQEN
Sequence of Induced myeloid leukemia cell differentiation protein Mcl-1 (Q07820 whole entry): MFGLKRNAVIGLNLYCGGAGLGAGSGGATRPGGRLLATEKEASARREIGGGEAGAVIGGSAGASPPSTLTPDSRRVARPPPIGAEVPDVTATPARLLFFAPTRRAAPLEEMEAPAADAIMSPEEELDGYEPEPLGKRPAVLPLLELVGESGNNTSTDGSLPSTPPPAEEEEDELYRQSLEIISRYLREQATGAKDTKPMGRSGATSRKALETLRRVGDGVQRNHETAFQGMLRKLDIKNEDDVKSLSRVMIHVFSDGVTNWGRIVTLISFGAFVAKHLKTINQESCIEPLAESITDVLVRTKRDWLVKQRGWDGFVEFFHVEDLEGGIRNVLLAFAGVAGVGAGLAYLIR

## CSc1ccccc1NC(=O)c1noc2c1CCC2
[1]
  IC50: > 50 µM (not active)
[2]
  IC50: 12.6 µM (active)
[3]
  IC50: 3.77 µM (active)

## CCc1ccc(S(=O)(=O)NCCc2csc(-c3ccccc3)n2)s1
[4]
  EC50: 4.22 µM (active)

## Oc1ccccc1C1=Nc2nc3ccccc3n2C(c2ccccc2)C1 (stereo not drawn)
[4]
  EC50: 6.95 µM (active)

## CCCC1=C(C(=O)OCC)C(c2cc(Cl)cc(OC)c2OCC(=O)OCC)NC(=O)N1 (stereo not drawn)
[2]
  IC50: > 100 µM (inactive)

## O=S(=O)(c1ccccc1)N(F)S(=O)(=O)c1ccccc1
[5]
  IC50: 55.3 µM (active)

## Cc1sc(Cc2nc(O)cs2)nc1-c1ccccc1
[6]
  EC50: > 31.5 µM (inactive)
[7]
  IC50: > 32 µM
[8]
  IC50: 15.6 µM (active)

## COc1ccc(N(CC(=O)Nc2cccc(C(F)(F)F)c2)S(C)(=O)=O)cc1
[4]
  EC50: 7.98 µM (active)

## COC(=O)C1=C(C)N(c2ccccc2)/C(=C/c2cccs2)C1=O
[2]
  IC50: > 50 µM (inactive)

## O=C(O)COc1ccccc1C(Nc1cccnc1)c1cc(Cl)c2cccnc2c1O (stereo not drawn)
[9]
  IC50: 38.4 µM (active)
[10]
  AC50: > 380 µM (inactive)
[11]
  IC50: 10.3 µM (active)
[12]
  IC50: 1.71 µM (active)
[13]
  EC50: > 150 µM (inactive)
[14]
  EC50: > 38 µM (not active)
[15]
  EC50: 11.8 µM (active)

## O=C1NC(c2ccc(Br)cc2)Nc2ccccc21 (stereo not drawn)
[16]
  AC50: 15.3 µM (active)
[17]
  EC50: > 69.5 µM (inactive)

## Cc1nc2scc(-c3ccccc3)c2c(=O)n1N=C1C=CC(=O)C=C1
[6]
  EC50: > 31.5 µM (inactive)
[7]
  IC50: 16.5 µM
[18]
  EC50: 2.23 µM (active)
[8]
  IC50: 9.24 µM (active)
[19]
  EC50: 7.47 µM (active)
[5]
  IC50: 9.73 µM (active)
[20]
  EC50: 5.96 µM (active)
